Measured values taken from patent publication US20240368209A1, “GEMCITABINE ANTICANCER DERIVATIVE AND ANTICANCER PHARMACEUTICAL USE” (ASCENTAWITS PHARMACEUTICALS, LTD., priority 2021, published 2024).
Where “and” joins values, the source holds several entries; their conditions need not be identical. Identical values can stand only once. Like-named read-outs stand apart in the source and are kept apart here.

Key:
[1] = system: H460 cancer cells; test: Inhibition of H460 cancer cells in the presence or absence of AKR1C3 inhibitor AST-3021 (section 2.1); assay type: cell-based, human; settings: AST-3021 3 μM, read-out: IC50 (nmol/L) AST-3021 added
Procedure: The experimental scheme was as follows: • 1) H460 cell suspension was added to a 96-well plate with 100 μL per well at a cell density of 2000/well. • 2) Cells were incubated in an incubator of 37° C., 5% CO2 overnight. • 3) Compound treatment
Combined administration: 24 hours after cell plating, 98 μL of growth medium per well was added. 1 μL of AST-3021 was added to each well (final concentration 3 μM), and the plate was shaken gently to ensure even mixing, and then placed into an incubator; after 2 hours, 1 μL of the test compound at different concentrations was added, and the plate was shaken gently to ensure even mixing, and then placed into an incubator of 37° C., 5% CO2.
Administration of the drug alone: 24 hours after cell plating, 99 μL of growth medium per well was added.
In order to further verify that the compound was activated specifically by human AKR1C3 (aldosterone reductase family 1 member C3), the compound was added following the pretreatment of cells with the specific AKR1C3 enzyme inhibitor AST-3021 (3 μM), and the effect of the presence of AST-3021 on the proliferation of H460 cancer cells was tested
IC50 data of inhibitory effect of the compounds gemcitabine and H11 on H460 cancer cells in the presence or absence of the AKR1C3 inhibitor AST-3021 is shown in Table 2 and Table 3.

[2] = Metabolic stability in human liver microsomes; assay type: in vitro ADME
Procedure: Main solutions were prepared according to Table 9 below:
(II) Two Separate Experiments were Performed • a) With cofactor (NADPH): 25 μL of 10 mM NADPH was added to the culture broth. The final concentration of liver microsomes was 0.5 mg/mL, and the final concentration of NADPH was 1 mM. • b) Without cofactor (NADPH): 25 μL of 100 mM phosphate buffer was added. The final concentration of liver microsomes was 0.5 mg/mL. The mixture was preheated at 37° C. for 10 minutes. (III) 25 μL of […] control compound or test compound solution was added to start the reaction. […] The final concentrations of the test compound and control compound were both 1 μM. The culture broth was cultured in water at 37° C. (IV) Aliquots of 30 μL were collected from the reaction solution at 0.5, 5, 15, 30, and 60 minutes, respectively. 5 volumes of cold acetonitrile and IS (internal standard, containing 100 nM of alprazolam, 200 nM of caffeine, and 100 nM of tolylbutanamide) were added to stop the reaction. […] 100 μL of supernatant was taken and mixed with 100 μL of ultrapure water, equally divided and analyzed with LC-MS/MS.
All calculations were conducted using Microsoft Excel. The peak area was determined from the extracted ion chromatogram.
[formula] [formula] [formula] • wherein, QH is the hepatic blood flow (mL/min/kg) in Table 10, and fub is the fraction of drug unbound in plasma, and assumed as 1.

[3] = Plasma stability in dog plasma; assay type: in vitro ADME
Procedure: The final concentration of organic solvents was 0.5%. The test was conducted in duplicate. • C.
Samples were analyzed with LC-MS/MS. All calculations were conducted using Microsoft Excel.

[4] = system: H460 non-small cell lung cancer human tumor cell line; test: In vitro human tumor cell line cytotoxicity (proliferation) assay on H460, CTG, with or without AST-3021; assay type: cell-based; settings: for IC50: Homo sapiens
Procedure: In vitro human tumor cell line cytotoxicity assay was used.
In vitro proliferation data on the H460 non-small cell lung cancer human tumor cell line (cell line which highly expresses AKR1C3) is reported below in the compound table.
IC50 values were obtained with the following steps:
Specifically, exponentially growing cells were seeded at a density of 2×10^3 cells/100 μL/well in a 96-well plate and incubated at 37° C. in 5% CO2, 95% air and 100% relative humidity for 24 hours. The test compound was administered alone: 24 hours after cell plating, the compound acted alone, 99 μL of growth medium per well was added, and 1 μL of the compound prepared at 200× was added, and the plate was shaken gently to ensure even mixing, then placed into an incubator of 37° C., 5% CO2. After further cultivation for 72 hours, the number of live cells was detected using CTG. The CTG detection method was as follows: the cell plate to be tested was placed at room temperature to equilibrate for 30 minutes, and 100 μL of medium per well was discarded. 25 μL of CTG reagent (CellTiter-Glo® kit) per well was added, and the plate was placed in a high-speed shaker to oscillate for 2 minutes, and placed at room temperature in the dark for 30 minutes. The chemiluminescence signal value was read using a multimode microplate reader, with a read time of 1000 ms.
Similarly, in order to further verify that the compounds were activated by human AKR1C3 (aldosterone reductase family 1 member C3), the effect of some of the compounds on the proliferation of H460 cancer cells was tested with pretreatment with a specific AKR1C3 enzyme inhibitor AST-3021 (3 μM). The detailed experimental procedure was as follows: 24 hours after cell plating, 98 μL of growth medium per well was added, and 1 μL of 200×compound AST-3021 was added to each well, and the plate was shaken gently to ensure even mixing, and then placed into an incubator; after 2 hours, 1 μL of the test compound prepared at 200× was added, and the plate was shaken gently to ensure even mixing and then laced into an incubator of 37° C., 5% CO2. The inhibitor used was compound 36, i.e.
in Flanagan et al., Bioorganic and Medicinal Chemistry (2014), page 962-977, and is referred to as AST-3021 in this invention. The values measured in this case are values corresponding to +AST-3021 IC50 (nM) in Table 1.
The value corresponding to +AST-3021 IC50 (nM) divided by the value corresponding to IC50 (nM) is the specific activation ratio. The relative magnitude of the specific activation ratio can be used to evaluate whether this compound is a cytotoxic compound activated by human AKR1C3 (aldosterone reductase family 1 member C3): when the specific activation ratio is less than 1, it is considered that the compound is not activated by human AKR1C3 (aldosterone reductase family 1 member C3); when the specific activation ratio is greater than 1, it is considered that the compound is activated by human AKR1C3 (aldosterone reductase family 1 member C3), and the higher the value, the higher the activation degree and the selectivity of AKR1C3.

CC(C)NP(=O)(OCc1ccc([N+](=O)[O-])c(Oc2ccc(-c3ccc(F)cc3)c(F)c2)c1)OCC1OC(C2N=CC(N)=NC2=O)C(F)(F)C1O (stereo not shown) [Compound H11]
IC50 ([1]; H460): 1470 nmol/L and 2350 nmol/L
IC50 ([1]; Homo sapiens, NCI-H460, H460): 2940 nmol/L
Hepatic Extraction Ratio (ER) [2]: 0.69
Predicted Hepatic CLH [2]: 0.8646 L/h/kg
clearance and stability in liver microsomes (in words) [2]: medium clearances and certain stability
Remaining percentage (%) ([2]; NADPH added, 0.5 minutes, 1 μM): 100.00%
Remaining percentage (%) ([2]; NADPH added, 5 minutes): 86.00%
Remaining percentage (%) ([2]; NADPH added, 15 minutes): 63.82%
Remaining percentage (%) ([2]; NADPH added, 30 minutes): 43.87%
Remaining percentage (%) ([2]; NADPH added, 60 minutes): 26.14%
Remaining percentage (%) ([2]; NADPH not added, 0.5 minutes): 100.00%
Remaining percentage (%) ([2]; NADPH not added, 60 minutes): 100.86%
half-life at 1 μM ([2]; read-out: In vitro half-life t1/2): 31 min
microsomal CLint at 1 μM ([2]; read-out: In vitro intrinsic clearance CLint): 44.7 µL/min/mg
CLint scaled at 1 μM ([2]; read-out: Scale-up CLint): 2.76 L/h/kg
t1/2 (min) [3]: ∞
Remaining percentage (%) ([3]; 0 min, 5 μM, 37° C.): 100.00%
plasma stability (in words) ([3]; 37° C., at least 2 hours): stable and has no significant metabolism
Remaining percentage (%) ([3]; 15 min): 104.14%
Remaining percentage (%) ([3]; 30 min): 103.37%
Remaining percentage (%) ([3]; 60 min): 102.42%
Remaining percentage (%) ([3]; 120 min): 103.04%
specific activation ratio (+AST-3021 IC50/IC50) [4]: 92.8
IC50 ([4]; NCI-H460, compound alone, 72 hours, read-out: IC50): 0.0159 µM
IC50 ([4]; NCI-H460, pretreatment with AKR1C3 inhibitor AST-3021 (3 μM), read-out: +AST-3021 IC50): 1.48 µM
